Holding throughout (format): cell-based
In experiment [1] the target is T1, GCGR (Homo sapiens, UniProt P47871).
T1 construct: expressed in transfected cells
The experiment can be described thus: CreLuc method (CRE-luciferase reporter), 293HEK/pGM-CREB-L-Luc/GCGR pool. Particulars: 6 h incubation, read-out: EC50 (pM) for each receptor GCGR. An outline of the steps:
(§1)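 Stable HEK293 pools co-expressing each receptor with a CRE-luciferase reporter were plated at 20,000 cells/well in freestyle medium and treated with compound dilution series for 6 h at 37 °C. Luminescence was read with ONE-GLO to derive EC50.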

For experiment [2], the target named is T2, GIPR (Homo sapiens, UniProt P48546).
T2 construct: expressed in transfected cells
T2 sequence (P48546 22-466): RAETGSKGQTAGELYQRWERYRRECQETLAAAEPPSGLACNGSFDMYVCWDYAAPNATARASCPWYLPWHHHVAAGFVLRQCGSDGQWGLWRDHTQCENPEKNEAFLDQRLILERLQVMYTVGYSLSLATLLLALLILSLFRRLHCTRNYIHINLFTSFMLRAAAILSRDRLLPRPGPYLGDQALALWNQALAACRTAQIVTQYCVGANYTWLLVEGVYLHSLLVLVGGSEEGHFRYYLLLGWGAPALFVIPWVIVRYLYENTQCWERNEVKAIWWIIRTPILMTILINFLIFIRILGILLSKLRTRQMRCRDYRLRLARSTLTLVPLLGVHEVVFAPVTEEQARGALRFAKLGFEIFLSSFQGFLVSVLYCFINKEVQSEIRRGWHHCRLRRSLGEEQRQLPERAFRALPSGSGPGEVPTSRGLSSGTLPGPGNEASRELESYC
Put plainly: cAMP method (HTRF cAMP detection kit), HEK293/pGM-CREB-L-Luc/GIP pool. The settings on record: read-out: EC50 (pM) for each receptor GIPR.

Experiment [3] concerns the target T2, GIPR. The experiment can be described thus: CreLuc method (CRE-luciferase reporter), HEK293/pGM-CREB-L-Luc/GIPR pool. The settings on record: 6 h incubation, read-out: EC50 (pM) for each receptor GIPR. An outline of the steps:
as §1

In experiment [4] the target is T3, GLP-1R (Homo sapiens, UniProt P43220).
T3 construct: expressed in transfected cells
Put plainly: cAMP method (HTRF cAMP detection kit), HEK293/pGM-CREB-L-Luc/GLP-1 pool. The settings on record: read-out: EC50 (pM) for each receptor GLP-1R. The protocol: 2. Insulinotropic analogues can bind to target receptors on the cell membrane, activate the receptors, and induce release. The activity of the test substance can be determined using the HTRF method with a cAMP detection kit. Therefore, the cAMP method can be used to detect the target peptide derivatives (or polypeptide derivatives, i.e., TG1-TG86) prepared in Example 1 and Example 2. […] The test cell line was selected, treated with cAMP-specific trypsin for digestion. 3 mL of serum-free DMEM culture medium was added, and the cells were pipetted, resuspended, and counted. 5 µL of IBMX (prepared with serum-free DMEM medium, 0.5 mM) and test cells (5 µL/7500 cells/well) were added in a 384-well plate sequentially. The plate was incubated at 37°C under 5% CO2 for 30 min, followed by the addition of cAMP-d2 (5 µL, 1x) and Anti-cAMP-Cryptate (5 µL, 1x). The mixture was kept at room temperature for 1 h, after which the HTRF value was measured using a chemiluminescent microplate reader, and the determination result was recorded. […] Table 4: EC50 values for target peptide derivatives
(TR-FRET usually uses a lanthanide donor and a delayed reading to cut background.)

Experiment [5] has as its target T3, GLP-1R. The experiment can be described thus: CreLuc method (CRE-luciferase reporter), HEK293/pGM-CREB-L-Luc/GLP-1R pool. The settings on record: 6 h incubation, read-out: EC50 (pM) for each receptor GLP-1R. An outline of the steps:
as §1
On the technique in general: A reporter such as luciferase makes a cellular process visible.

Experiment [6] concerns the target T1, GCGR. The experiment can be described thus: cAMP method (HTRF cAMP detection kit), HEK293/pGM-CREB-L-Luc/GCG pool. Particulars: read-out: EC50 (pM) for each receptor GCGR.

The structures appear in SMILES notation.

What is called EC50 is the concentration needed to bring the measured effect to its halfway point.

T3 sequence (P43220 24-463, species assumed): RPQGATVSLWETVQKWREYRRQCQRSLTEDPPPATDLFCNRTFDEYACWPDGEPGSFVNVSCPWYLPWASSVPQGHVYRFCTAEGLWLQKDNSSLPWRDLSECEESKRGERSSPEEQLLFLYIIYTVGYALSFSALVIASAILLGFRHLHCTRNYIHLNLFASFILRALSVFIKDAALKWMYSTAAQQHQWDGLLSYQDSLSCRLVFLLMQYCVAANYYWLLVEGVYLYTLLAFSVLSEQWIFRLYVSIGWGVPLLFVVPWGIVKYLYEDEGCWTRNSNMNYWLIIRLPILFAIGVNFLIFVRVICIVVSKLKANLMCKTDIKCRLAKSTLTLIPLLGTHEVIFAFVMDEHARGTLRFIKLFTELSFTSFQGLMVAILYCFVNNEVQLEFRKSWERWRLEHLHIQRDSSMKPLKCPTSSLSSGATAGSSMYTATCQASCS
T1 sequence (P47871 26-477, species assumed): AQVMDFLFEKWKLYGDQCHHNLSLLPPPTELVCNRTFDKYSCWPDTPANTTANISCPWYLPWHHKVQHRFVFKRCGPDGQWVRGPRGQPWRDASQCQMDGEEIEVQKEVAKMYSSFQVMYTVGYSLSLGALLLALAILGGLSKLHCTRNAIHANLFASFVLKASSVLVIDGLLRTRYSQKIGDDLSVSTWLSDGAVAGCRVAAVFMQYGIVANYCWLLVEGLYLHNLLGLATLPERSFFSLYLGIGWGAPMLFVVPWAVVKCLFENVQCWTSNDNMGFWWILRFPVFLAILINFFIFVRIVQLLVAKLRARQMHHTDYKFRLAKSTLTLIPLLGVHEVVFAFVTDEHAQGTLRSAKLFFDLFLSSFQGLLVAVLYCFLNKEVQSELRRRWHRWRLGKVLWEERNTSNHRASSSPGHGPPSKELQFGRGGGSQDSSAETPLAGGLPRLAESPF

Consider `CC[C@H](C)[C@@H]1NC(=O)[C@H](Cc2ccccc2)NC(=O)[C@@H](NC(=O)C(C)(C)NC(=O)[C@H](CCC(N)=O)NC(=O)[C@H](C)NC(=O)[C@H](CCC(N)=O)NC(=O)[C@H](CCCCN)NC(=O)[C@H](CC(=O)O)NC(=O)[C@H](CC(C)C)NC(=O)[C@](C)(CC(C)C)NC(=O)[C@@H](NC(=O)[C@H](CO)NC(=O)[C@H](Cc2ccc(O)cc2)NC(=O)[C@H](CC(=O)O)NC(=O)[C@H](CO)NC(=O)[C@@H](NC(=O)[C@H](Cc2ccccc2)NC(=O)[C@@H](NC(=O)CNC(=O)[C@H](CCC(N)=O)NC(=O)C(C)(C)NC(=O)[C@@H](N)Cc2ccc(O)cc2)[C@@H](C)O)[C@@H](C)O)[C@@H](C)CC)CSCC(=O)NCCN(C(=O)CCC(=O)NCCOCCOCC(=O)NCCOCCOCC(=O)NCCCC[C@H](NC(=O)CCCCCCCCCCCCCCCCCCC(=O)O)C(=O)O)CCNC(=O)CSC[C@@H](C(=O)NCC(=O)NCC(=O)N2CCC[C@H]2C(=O)N[C@@H](CO)C(=O)N[C@@H](CO)C(=O)NCC(=O)N[C@@H](C)C(=O)N2CCC[C@H]2C(=O)N2CCC[C@H]2C(=O)N2CCC[C@H]2C(=O)N[C@@H](CO)C(N)=O)NC(=O)[C@H](CC(C)C)NC(=O)[C@H](CC(C)C)NC(=O)[C@H](Cc2ccc(O)cc2)NC(=O)[C@H](CCC(=O)O)NC1=O` [TG30], for which the EC50 was 347 pM in experiment [1]; 3.2 pM in experiment [2]; 45.3 pM in experiment [3]; 2.5 pM in experiment [4]; 47.8 pM in experiment [5]; 28.7 pM in experiment [6].
`CC[C@H](C)[C@@H]1NC(=O)[C@H](Cc2ccccc2)NC(=O)[C@@H](NC(=O)C(C)(C)NC(=O)[C@H](CCC(N)=O)NC(=O)[C@H](C)NC(=O)[C@H](CCCCNC(C)=O)NC(=O)[C@H](CCCCN)NC(=O)[C@H](CC(=O)O)NC(=O)[C@H](CC(C)C)NC(=O)[C@](C)(CC(C)C)NC(=O)[C@@H](NC(=O)[C@H](CO)NC(=O)[C@H](Cc2ccc(O)cc2)NC(=O)[C@H](CC(=O)O)NC(=O)[C@H](CO)NC(=O)[C@@H](NC(=O)[C@H](Cc2ccccc2)NC(=O)[C@@H](NC(=O)CNC(=O)[C@H](CCC(N)=O)NC(=O)C(C)(C)NC(=O)[C@@H](N)Cc2ccc(O)cc2)[C@@H](C)O)[C@@H](C)O)[C@@H](C)CC)CSCC(=O)NCCN(C(=O)CCC(=O)NCCOCCOCC(=O)NCCOCCOCC(=O)NCCCC[C@H](NC(=O)CCCCCCCCCCCCCCCCCCC(=O)O)C(=O)O)CCNC(=O)CSC[C@@H](C(=O)NCC(=O)NCC(=O)N2CCC[C@H]2C(=O)N[C@@H](CO)C(=O)N[C@@H](CO)C(=O)NCC(=O)N[C@@H](C)C(=O)N2CCC[C@H]2C(=O)N2CCC[C@H]2C(=O)N2CCC[C@H]2C(=O)N[C@@H](CO)C(N)=O)NC(=O)[C@H](CC(C)C)NC(=O)[C@H](CC(C)C)NC(=O)[C@H](Cc2ccc(O)cc2)NC(=O)[C@H](CCC(=O)O)NC1=O` [TG15]: the EC50 in experiment [1] worked out at 329 pM; in experiment [2] it was 3.3 pM; in experiment [3], 85.6 pM; in experiment [4], 1.9 pM; in experiment [5], 116 pM; in experiment [6] it was 40.3 pM.

The values above are taken from patent publication EP4790066A1, “GLP-1R/GIPR/GCGR TRIPLE AGONIST ANALOGUE AND USE THEREOF” (Shenzhen Bay Laboratory, priority 2023, dated 2025).
